From patent US20230295145A1, “PYRROLIDINE DERIVATIVES AND METHODS OF USE” (Genentech, Inc., priority 2020, published 2023)
pIC50: −log10 of the molar value. Where two headings read alike, the source gives them in different places. Each block holds one molecule with its values, some of them ahead of it.

What was measured:
[1] = tested on: HCC1438; test: Cell Viability Assay (CellTiter-Glo); type: cell-based; conditions: 10 μM, 5 days
Procedure: (§1) Cell lines were cultured in RPMI-1640, 5% fetal bovine serum, and 2 mM glutamine in a humidified incubator maintained at 37° C. with 5% CO2. Cells were assessed with a Vi-CELL Cell Viability Analyzer (Beckman Coulter; Brea, CA); viability of at least 90% was required for screening. A Multidropä Combi Reagent Dispenser (Thermo Scientific; Waltham, MA) was used to plate cells into Falcons^â 384-well, black, clear-bottom plates (Catalog No. 353962; Corning; Tewksbury, MA) using seeding densities previous determined to achieve approximately 80% confluence at the final time point of the assay. The compounds were prepared at 1000× in advance using an Echo 555 liquid handler (Labcyte; Sunnyvale, CA) and stored in −80° C. until the day of compound addition. On the following day, cells were treated with compounds at final assay concentration 1 uM and 10 uM using a Bravo Automated Liquid-Handling Platform (Agilent; Santa Clara, CA). After 5 days, 25 mL CellTiter-Glo^â reagent was added using a MultiFloä Microplate Dispenser (BioTek; Winooski, VT). Cell lysis was induced by mixing for 30 minutes on an orbital shaker; plates were then incubated at room temperature for 10 minutes to stabilize the luminescent signal. Luminescence was read by a 2104 EnVision^â Multilabel Plate Reader (PerkinElmer; Waltham, MA). […]

[2] = tested on: KPL-1; test: Cell Viability Assay (CellTiter-Glo); type: cell-based; conditions: 5 days
Procedure: (§2) Cell lines were cultured in RPMI-1640, 5% fetal bovine serum, and 2 mM glutamine in a humidified incubator maintained at 37° C. with 5% CO2. Cells were assessed with a Vi-CELL Cell Viability Analyzer (Beckman Coulter; Brea, CA); viability of at least 90% was required for screening. A Multidropä Combi Reagent Dispenser (Thermo Scientific; Waltham, MA) was used to plate cells into Falcons^â 384-well, black, clear-bottom plates (Catalog No. 353962; Corning; Tewksbury, MA) using seeding densities previous determined to achieve approximately 80% confluence at the final time point of the assay. The compounds were prepared at 1000× in advance using an Echo 555 liquid handler (Labcyte; Sunnyvale, CA) and stored in −80° C. until the day of compound addition. On the following day, cells were treated with compounds at final assay concentration 1 uM and 10 uM using a Bravo Automated Liquid-Handling Platform (Agilent; Santa Clara, CA). After 5 days, 25 mL CellTiter-Glo^â reagent was added using a MultiFloä Microplate Dispenser (BioTek; Winooski, VT). Cell lysis was induced by mixing for 30 minutes on an orbital shaker; plates were then incubated at room temperature for 10 minutes to stabilize the luminescent signal. Luminescence was read by a 2104 EnVision^â Multilabel Plate Reader (PerkinElmer; Waltham, MA).
(§3) The data was processed using Genedata Screener^â, Version 15 (Genedata; Basel, Switzerland) to assess compound effects on viability. Compound treated wells were normalized to the median value of 14 DMSO control wells on the same 384 well plate.

[3] = tested on: PANC-1; test: Cell Viability Assay (CellTiter-Glo); type: cell-based; conditions: 5 days
Procedure: as §2, §3

[4] = tested on: SUIT-2; test: Cell Viability Assay (CellTiter-Glo); type: cell-based; conditions: 10 μM, 5 days
Procedure: as §1

[5] = tested on: NCI-H23; test: Cell Viability Assay (CellTiter-Glo); type: cell-based; conditions: 5 days
Procedure: as §2, §3

[6] = biological target: T1, VHL (Homo sapiens, UniProt P40337); test: VHL HEK-293 BRET Assay (VHL NanoBRET Target Engagement Assay); type: cell-based; conditions: IC50 values measured in the presence of digitonin; HEK 293 RT VHL-NanoLuc stable cells; read-out: IC50 + Digi (μM)*
T1 construct: expressed in transfected cells

[7] = tested on: NCI-H1650; test: Cell Viability Assay (CellTiter-Glo); type: cell-based; conditions: 10 μM, 5 days
Procedure: as §1

[8] = tested on: SW 620; test: Cell Viability Assay (CellTiter-Glo); type: cell-based; conditions: 10 μM, 5 days
Procedure: as §1

[9] = tested on: MDA-MB-436; test: Cell Viability Assay (CellTiter-Glo); type: cell-based; conditions: 10 μM, 5 days
Procedure: as §1

[10] = biological target: T1, VHL; test: VHL HEK-293 BRET Assay (VHL NanoBRET Target Engagement Assay); type: cell-based; conditions: HEK 293 RT VHL-NanoLuc stable cells; for pIC50: read-out: IC50
Procedure: The VHL NanoBRET™ Target Engagement Assay analyzes the apparent affinity of test compounds for VHL in cells by competitive displacement of a VHL NanoBRET™ tracer reversibly bound to a NanoLuc® VHL fusion protein stably expressed in the cells.
Test compounds were transferred to the assay plate (384 Well White Non-Binding Corning Assay Plates (Corning-3574)) using an Echo 555 Liquid Handler (Labcyte) in 2.5 nL increments and, as appropriate, intermediate stock concentrations of compounds, in order to prepare a titration series. 50 nL of control compound (10 mM; parental unlabeled VHL antagonist; see structure below) and 50 nL of DMSO (negative control) were dispensed into the appropriate control wells. DMSO was backfilled to a final volume of 50 nL as required. 50 nl per well of 1 mM VHL NanoBRET™ Tracer in DMSO (NanoBRET™ Tracer-PEG2-590 (see structure below)) was transferred into each well using an Echo 555 (ultimately yielding a final concentration of 1 uM). HEK 293 RT VHL-NanoLuc® stable cells were cultured in DMEM High Glucose with Pyruvate, 10% fetal bovine serum, 2 mg/mL of Geneticin Selective Antibiotic (50 mg/mL) and 2 mM HEPES (1 M). Cells were seeded in Opti-MEM (Life Technologies-11058-021), 1.7×10^5 cells/mL, 40 μl per well into the assay plate, centrifuged at 500 rpm for 30 seconds and incubated for 2 hours. Max Signal control wells consisted of DMSO only treated wells. Minimum Signal control wells contained of 10 uM parental unlabeled VHL antagonist (control compound—see structure below). 3× Complete Substrate plus Inhibitor Solution was prepared in Opti-MEM (consists of a 1:166 dilution of NanoBRET™ Nano-Glo® Substrate plus a 1:500 dilution of Extracellular NanoLuc® Inhibitor in Opti-MEM), and 20 ul was dispensed into each well of the 384-well plate and centrifuged at 1000 rpm for 1 minute, then incubated for 2 minutes at room temperature. Background Signal control wells were prepared without tracer for background correction steps.
Plates were read using a PerkinElmer Envision Reader (model 2104-0020) equipped with Luminescence option (Mirror: BRET2 Enh (PE Barcode 659), Emission Filter: Omega 610LP (Barcode 504), 2nd Emission Filter: Umbelliferone 460 (Barcode 207), Measurement height: 6.5 mm, Measurement time: 1 s). The raw BRET ratio values were calculated by dividing the acceptor emission value (610 nm) by the donor emission value (460 nm) for each sample. To correct for background, the BRET ratio in the absence of tracer (average of no-tracer control samples) was subtracted from the BRET ratio of each sample. Raw BRET units were converted to milliBRET units (mBU) by multiplying each raw BRET value by 1,000. The normalized NanoBRET™ signal was calculated relative to the Max Signal control wells (DMSO treated control wells) and the Minimum Signal control wells. Percentage inhibition was calculated relative to the Minimum Signal control and Maximum Signal control wells. IC50 values were derived by four parameter curve fitting using the Robust method.

[11] = tested on: KNS-62; test: Cell Viability Assay (CellTiter-Glo); type: cell-based; conditions: 5 days
Procedure: as §2, §3

[12] = tested on: HCC366; test: Cell Viability Assay (CellTiter-Glo); type: cell-based; conditions: 5 days
Procedure: as §2, §3

[13] = tested on: CAL-120; test: Cell Viability Assay (CellTiter-Glo); conditions: 5 days
Procedure: as §2, §3

[14] = tested on: MCF-7; test: Cell Viability Assay (CellTiter-Glo); type: cell-based; conditions: 10 μM, 5 days
Procedure: as §1

[15] = tested on: ABC-1; test: Cell Viability Assay (CellTiter-Glo); type: cell-based; conditions: 10 μM, 5 days
Procedure: as §2, §3

[16] = tested on: KPL-4; test: Cell Viability Assay (CellTiter-Glo); type: cell-based; conditions: 10 μM, 5 days
Procedure: as §1

[17] = tested on: NCI-H2030; test: Cell Viability Assay (CellTiter-Glo); type: cell-based; conditions: 5 days
Procedure: as §2, §3

[18] = tested on: CAL-120; conditions: 10 µM
Procedure: as §2, §3

T1 sequence (P40337 whole entry): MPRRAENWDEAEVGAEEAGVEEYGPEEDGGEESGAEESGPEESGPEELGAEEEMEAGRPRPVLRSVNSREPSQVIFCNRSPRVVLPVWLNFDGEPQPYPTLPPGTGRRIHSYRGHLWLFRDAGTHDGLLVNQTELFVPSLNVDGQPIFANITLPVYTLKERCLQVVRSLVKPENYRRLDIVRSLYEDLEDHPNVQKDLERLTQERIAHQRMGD

IC50 [6]: 0.0132 µM
pIC50 [10]: 8.10
Molecule: Cc1ncsc1-c1ccc(CNC(=O)[C@@H]2C[C@@H](O)CN2C(=O)[C@@H](n2cc(C3CC3)nn2)C(C)(C)C)cc1 [Compound 288, (2S,4R)-1-[(2S)-2-(4-cyclopropyltriazol-1-yl)-3,3-dimethyl-butanoyl]-4-hydroxy-N-[[4-(4-methylthiazol-5-yl)phenyl]methyl]pyrrolidine-2-carboxamide]
Normalized viability % DMSO [1]: 2.1 % DMSO
Normalized viability % DMSO ([2]; 1 μM): 40.5 % DMSO
Normalized viability % DMSO ([2]; 10 μM): 25.4 % DMSO
Normalized viability % DMSO ([3]; 1 μM): 33.9 % DMSO
Normalized viability % DMSO ([3]; 10 μM): 31.1 % DMSO
Normalized viability % DMSO [4]: 30.2 % DMSO
Normalized viability % DMSO ([5]; 1 μM): 8.6 % DMSO
Normalized viability % DMSO ([5]; 10 μM): 6.7 % DMSO
Normalized viability % DMSO [7]: 27.7 % DMSO
Normalized viability % DMSO [8]: 28.2 % DMSO
Normalized viability % DMSO [9]: 15.8 % DMSO
Normalized viability % DMSO ([11]; 1 μM): 44.3 % DMSO
Normalized viability % DMSO ([11]; 10 μM): 26.4 % DMSO
Normalized viability % DMSO ([12]; 1 μM): 43.0 % DMSO
Normalized viability % DMSO ([12]; 10 μM): 22.5 % DMSO
Normalized viability % DMSO ([13]; 1 μM): 31.1 % DMSO
Normalized viability % DMSO ([13]; 10 μM): 31.9 % DMSO
Normalized viability % DMSO [14]: 25.8 % DMSO
Normalized viability % DMSO [15]: 7.1 % DMSO
Normalized viability % DMSO [16]: 2.2 % DMSO
Normalized viability % DMSO ([17]; 1 μM): 19.2 % DMSO
Normalized viability % DMSO ([17]; 10 μM): 16.5 % DMSO

pIC50 [10]: 6.68
IC50 ([10]; IC50 values measured in the presence of digitonin, read-out: IC50 + Digi (μM)*): 0.435 µM
Molecule: (2S,4R)-N-[2-(4-bromoindol-1-yl)ethyl]-1-[(2S)-2-(4-cyclopropyltriazol-1-yl)-3,3-dimethyl-butanoyl]-4-hydroxy-pyrrolidine-2-carboxamide [Compound 469]
Normalized viability % DMSO [18]: 62.6 % DMSO
